Measurements: patent US10662153B2 (The University of Toledo, priority 2016, dated 2020)

How the values were obtained:
PPARα OE 3T3-L1 cells = assay: Endogenous PPARα gene regulatory activity in 3T3-L1 cells (Real-time PCR); format: cell-based, mouse; conditions: 50 μM, 24 hours, dialyzed fatty acid-free media
Experimental: (§1) (FIG. 4D.) RNA was extracted and mRNA expression was measured by Real-time PCR.
(§2) To establish a 3T3-L1 or Hepa1c1c7 cell line that have PPARα stably overexpressed, mouse PPARα cDNA was ligated into the NotI/BamHI sites of the pQXCIP vector and transformed in DH5α cells (Invitrogen, Carlsbad, Calif.). […] The supernatants were harvested, and the cell debris was removed by centrifugation at 2000×g. The supernatant was used to infect 3T3-L1 or Hepa1c1c7 cells after addition of polybrene ([…], Sigma Chemical Co., St. Louis, Mo.) to establish cell lines with stable overexpression of a PPARα overexpressing (3T3-PPARα) or expressing empty vector (3T3-Vector). After 72 h the cells were selected with puromycin, and positive cells were confirmed by Western blotting and used for experiments.

[1] = tested on: hepa1c1c7 mouse hepatocytes overexpressing PPARα; assay: PPARα controlled genes in hepa1c1c7 liver cells (Real-time PCR); format: cell-based; conditions: 50 μM, 24 hours, dialyzed fatty acid-free media
Experimental: as §1, §2

3T3-L1 cells = assay: Adipogenesis assay (Nile Red lipid accumulation, Real-time PCR); format: cell-based, mouse
Experimental: Total RNA was read on a NanoDrop 2000® spectrophotometer (Thermo Fisher Scientific, Wilmington, Del.), and cDNA was synthesized using High Capacity cDNA Reverse Transcription Kit (Applied Biosystems). PCR amplification of the cDNA was performed by quantitative real-time PCR using TrueAmp® SYBR Green qPCR SuperMix (Advance Bioscience). The thermocycling protocol consisted of 10 min at 95° C., 40 cycles of 15 sec at 95° C., 30 sec at 60° C., and 20 sec at 72° C., and finished with a melting curve ranging from 60-95° C. to allow distinction of specific products. Normalization was performed in separate reactions with primers to GAPDH.
Adipogenic differentiation of 3T3-L1 cells was achieved by treatment with 1 μM Dex, 830 nM insulin, and 100 μM isobutylmethylxanthine in 10% FBS until Day 9. Upon differentiation, cells were stained with Nile Red to visualize lipid content, and densitometry was used as a direct measure. Total RNA extracted from Nile Red stained cells was used for real time PCR analysis.

[2] = format: physicochemical
Source text: (§3) This was to help increase the solubility of bilirubin in solution. […] Bilirubin was purchased commercially from Frontier Scientific.

PPARα [3] = molecular target: T1, PPARα (Mus musculus, UniProt P23204); assay: Pull-down assay with ligand-coupled sepharose resins, PPARα OE 3T3-L1 cells; format: binding; parameters: expressed in transfected cells; conditions: ligand coupled to sepharose beads
T1 sequence (P23204 1-468): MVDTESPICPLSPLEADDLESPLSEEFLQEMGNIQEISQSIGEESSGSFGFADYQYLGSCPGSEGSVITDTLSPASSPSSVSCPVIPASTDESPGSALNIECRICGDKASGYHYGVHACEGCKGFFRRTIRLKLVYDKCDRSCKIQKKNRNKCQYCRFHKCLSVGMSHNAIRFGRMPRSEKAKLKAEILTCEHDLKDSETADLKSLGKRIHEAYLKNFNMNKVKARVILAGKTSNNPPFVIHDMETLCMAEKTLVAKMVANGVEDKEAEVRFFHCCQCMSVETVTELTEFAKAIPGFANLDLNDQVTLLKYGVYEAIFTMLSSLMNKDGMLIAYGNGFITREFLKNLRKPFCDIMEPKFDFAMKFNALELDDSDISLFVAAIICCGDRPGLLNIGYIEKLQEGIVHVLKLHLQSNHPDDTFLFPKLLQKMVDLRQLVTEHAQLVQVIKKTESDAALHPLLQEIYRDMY
Experimental: The ligand coupling was performed according to the GE Healthcare instructions (71-7097-00 AE, pg. 6) for EAH Sepharose™ 4B. The procedure in the online instructions was titled “A general ligand coupling procedure”. […] Resin coupling procedures were conducted in a DMF/H2O solvent system (1:1) with a final concentration of 0.1 M EDC*HCl. […] Upon completion, resins were washed according to the GE instructions (3 alternating washings with 0.5 M NaCl containing 0.1 M sodium acetate pH 4.5 and 0.5 M NaCl containing 0.1 M Tris pH 8) over a 10-15 μm fritted filter. As an additional step to the GE instructions, matrix-coupled bilirubin and biliverdin coupled preparations were further washed with 50% DMSO/H2O solutions (250 mL) to remove any unreacted ligand. The filtrate was nearly colorless after this step. […] The resins were suspended in 20% EtOH/H2O (15 mL) and stored at 4° C. for 16 h in capped sample vials. The ligand-coupled resin settles overnight and the supernatant was carefully decanted until minimal amounts of 20% EtOH/H2O covered the resin. […]
Whole cell extracts (WCE) were prepared by freezing the cell pellet overnight at −80° C. […] Immunoreactivity was visualized and quantified by infrared scanning in the Odyssey system (LI-COR Biosciences). […]

PPARα [4] = molecular target: T1, PPARα; assay: Promoter reporter assay (PPRE-3tk-luc luciferase) in Cos7 cells; conditions: for level of PPARα activation compared among the ligands / PPARα activity at the minimal luciferase promoter: PPARα overexpressed, 50 μM each; for level of PPARα activation compared among the ligands: 24 hours (FIG. 3C); for PPARα activity at the minimal luciferase promoter: vs Veh (FIG. 3C)
Experimental: Cos7 cells were transiently transfected with a minimal PPARα responsive promoter luciferase construct (PPRE-3tk-luc) for 24 hours along with an empty vector and a vector containing PPARα cDNA (overexpression).
The mouse 3T3-L1 preadipocyte, Hepa1c1c7, and Cos7 green kidney monkey cells were routinely cultured and maintained in Dulbecco's Modified Eagles's Medium (DMEM) containing 10% bovine calf serum or FBS with 1% penicillin-streptomycin.
A PPARα minimal promoter PPRE-3tk-luc activity was measured by luciferase, and pRL-CMV Renilla reporter for normalization to transfection efficiency. Transient transfection was achieved using GeneFect® (Alkali Scientific, Inc.). Twenty-four-hour post-transfected cells were lysed and the luciferase assay was performed using the Promega® dual luciferase assay system (Promega, Madison, Wis.).

[5] = Stability on heating during resin preparation; format: physicochemical; conditions: 75° C. for 90 min in DMF/H2O; judged by decrease in PPARα binding of resin
Source text: as §3

[6] = tested on: wild-type mice on a high fat diet; conditions: mouse, in vivo
Experimental: (§4) With respect to animals, the procedures and protocols conform to the National Institutes of Health Guide for the Care and Use of Laboratory Animals, and were approved by the Institutional Animal Care and Use Committee of the University of Mississippi Medical Center. Tests were performed on 16 week old male PPARα knockout and wild-type mice on a C57 genetic background purchased from Jackson Labs (Bar Harbor, Me.). […] After this time, mice were switched to a 60% high fat diet (diet # D12492, Research Diets, Inc., New Brunswick, N.J.) for an additional 6 weeks. […] Control mice were not treated. Mice were euthanized on the last day of the test, at which time all organs were collected and weighed.
(§5) Following an 8 hour fast, a blood sample was obtained via orbital sinus under isoflorane anesthesia.
(§6) Plasma samples from individual mice were measured in duplicate and then averaged. The concentrations are expressed as mg/dL Plasma alanine aminotransferase (ALT) and aspartate aminotransferase (AST) levels were determined in 50 μL of plasma by colorimetric assay (Cobas, Rochce Diagnostics, Indianapolis, Ind.). Assays were performed according to the manufacturer's guidelines and samples were read on a Roche Cobas c501 analyzer. The concentrations were expressed as units/L.

[7] = tested on: PPARα KO mice on a high fat diet; conditions: mouse, in vivo
Experimental: as §4, §5, §6

[8] = tested on: PPARα KO mice on a high fat diet; assay: High fat diet PPARα KO mice treated for seven days; conditions: bilirubin 30 mg/kg or fenofibrate 90 mg/kg i.p.
Experimental: as §4, §5, §6

[9] = 10 μM, differentiated 3T3-L1 adipocytes

Row | SMILES | CD36 mRNA expression (PPARα OE 3T3-L1 cells) | CD36 mRNA [1] | CYP4A10 mRNA [1] | FGF21 mRNA response [1] | Pyruvate dehydrogenase kinase 4 (PDK4) expression [1] | angiopoietin-like 4 (ANGPTL4) expression [1] | heme oxygenase-1 (HO-1) mRNA response [1] | reduction of lipid accumulation (3T3-L1 cells; 10 μM over the 9 day protocol) | expression of FAS (3T3-L1 cells; [9]) | reduction of lipid accumulation (3T3-L1 cells; 50 μM over the 9 day protocol) | solubility in organic solvents [2] | level of PPARα activation compared among the ligands (PPARα [4]; Cos7 cells) | PPARα activity at the minimal luciferase promoter (PPARα [4]; Cos7 cells, 24 hours) | other results
1 | Cc1cccc(Nc2cc(Cl)nc(SCC(=O)O)n2)c1C [WY 14,643] | strongly induced expression | responded | responded | not | significantly (p<0.05) higher | significantly increased | not | 56% | significantly (p<0.001) decreased expression of FAS | 33% | readily soluble | higher than biliverdin or fenofibrate | significantly (p<0.0001) increased | direct binding to PPARα (pull-down) (PPARα [3]): can directly bind; induction of PPARα activity (PPARα [4]; Cos7 cells transfected with PPARα and RXR, 50 μM, 24 hrs (FIG. 12)): 2.1 fold
2 | C=CC1=C(C)/C(=C/c2[nH]c(Cc3[nH]c(/C=C4\NC(=O)C(C)=C4C=C)c(C)c3CCC(=O)O)c(CCC(=O)O)c2C)NC1=O [bilirubin] |  |  |  |  |  |  |  |  |  |  | limited solubility |  |  | stability with heating [5]: less stable with heating; alanine aminotransferase (ALT) [6]: no change; aspartate aminotransferase (AST) [6]: no change; alanine aminotransferase (ALT) [7]: significantly (p<0.05) decreased; aspartate aminotransferase (AST) [7]: significantly (p<0.05) decreased; body weight [8]: no effect
3 | C=CC1=C(C)/C(=C/C2=NC(=C\c3[nH]c(/C=C4\NC(=O)C(C)=C4C=C)c(C)c3CCC(=O)O)/C(CCC(=O)O)=C2C)NC1=O [biliverdin] | significantly (p<0.05) increased CD36 mRNA expression more than fenofibrate | not | not | increased | increased with all the ligands | significantly increased | increased | 50% | significantly (p<0.001) decreased expression of FAS | 91% | readily soluble | same level of PPARα activation | significantly (p<0.0001) increased | CPT1 expression (PPARα OE 3T3-L1 cells): increased CPT1 and FGF21 expression more than WY 14,643 treatment; FGF21 mRNA expression (PPARα OE 3T3-L1 cells): significantly (p<0.05) enhanced FGF21 mRNA higher than fenofibrate; reduction of lipid accumulation (3T3-L1 cells; 10 μM over the 9 day protocol, listed as Biliverdin): 49%; expression of CPT1 (3T3-L1 cells; [9]): significantly (p<0.001) increased expression of CPT1; water solubility [2]: greater water solubility than bilirubin; PPARα activity (PPRE-3tk-luc) (PPARα [4]; Cos7 cells, PPARα overexpression, dose dependence, 24 hours, vs 0 μM): significantly (p<0.05) increased; PPRE-3tk-luc promoter activation in the absence of PPARα (PPARα [4]; Cos7 cells, empty vector, dose dependence, 24 hours): did not activate
4 | CC(C)OC(=O)C(C)(C)Oc1ccc(C(=O)c2ccc(Cl)cc2)cc1 [fenofibrate] |  |  |  |  |  |  |  | 48% |  | 51% |  |  |  | 
